Experimental data: US9999622B2, “Pyrazolothiazole compound and medicine comprising same” (NIPPON SHINYAKU CO., LTD., priority 2014, dated 2018)
Structures can show the parent of a compound that is named as a salt.

How the values were obtained:
Type in all cases: biochemical
JAK1 = biological target: T1, JAK1 (Homo sapiens, UniProt P23458); test: JAK tyrosine kinase inhibitory activity in the presence of 1 mM ATP (ELISA), JAK1
T1 construct: purchased Carna Biosciences, Inc
Procedure: (§1) 1. Preparation of Test Compound
(§2) The test compound was dissolved in dimethyl sulfoxide (DMSO) to 10 mM and further diluted with DMSO to the concentrations of 1000, 100, 10, 1, 0.1 and 0.01 μM, respectively. For JAK1, these solutions of the test compound at the six concentrations 10 mM, 1000 μM, 100 μM, 10 μM, 1 μM and 0.1 μM were used. For JAK2 and JAK3, these solutions of the test compound at the six concentrations 1000 μM, 100 μM, 10 μM, 1 μM, 0.1 μM and 0.01 μM were used. The test compound solutions were diluted further to 20-fold with an assay buffer to obtain a sample solution. 15 mM Tris-HCl (pH7.5), 0.01 (v/v) % Tween-20 and 1 mM dithiothreitol were used as an assay buffer. DMSO was diluted to 20-fold with the assay buffer and was used as a negative control.
(§3) 2. JAK Tyrosine Kinase Inhibitory Activity in the Presence of 1 mM Atp
(§4) The activity was determined by ELISA method. Each of the sample solutions was added to a streptavidine coated 96-well plate (DELFIA Strip Plate 8×12 well, PerkinElmer) at 10 μL/well (n=2). […] Finally, JAK tyrosine kinase (Carna Biosciences, Inc.), which was previously diluted with the assay buffer to 7.5 nM for JAK1 and 0.75 nM for JAK2 and JAK3, was added to the plate at 20 μL/well, and the plate was incubated at 30° C. for 1 h. The plate was washed four times with buffer (50 mM Tris-HCl (pH 7.5), 150 mM NaCl, 0.02 (v/v) % Tween-20). A blocking buffer (0.1% Bovine Serum Albumin, 50 mM Tris-HCl (pH 7.5), 150 mM NaCl, 0.02 (v/v) % Tween-20) was added to the plate at 150 μL/well and the plate was blocked at 30° C. for 1 h. The blocking buffer was removed, and a horse radish peroxidase-labeled anti-phosphorylated tyrosine antibody (BD Biosciences, Inc.) (diluted to 10000-fold with the blocking buffer) was added to the plate at 100 μL/well, and the plate was incubated at 30° C. for 30 min. The plate was washed with the washing buffer four times, and 3,3′,5,5′-tetramethylbenizidine solution (Nacalai Tesque) was added to the plate at 100 μL/well to develop the color for 10 minutes. To the plate was added 0.1 M sulfuric acid at 100 μL/well to stop the reaction. The absorbance at 450 nm was measured using a microplate reader (BIO-RAD).
(§5) 3. Analysis of the Results

JAK2 = biological target: T2, JAK2 (Homo sapiens, UniProt O60674); test: JAK tyrosine kinase inhibitory activity in the presence of 1 mM ATP (ELISA), JAK2
T2 construct: purchased Carna Biosciences, Inc
T2 sequence (O60674 whole entry): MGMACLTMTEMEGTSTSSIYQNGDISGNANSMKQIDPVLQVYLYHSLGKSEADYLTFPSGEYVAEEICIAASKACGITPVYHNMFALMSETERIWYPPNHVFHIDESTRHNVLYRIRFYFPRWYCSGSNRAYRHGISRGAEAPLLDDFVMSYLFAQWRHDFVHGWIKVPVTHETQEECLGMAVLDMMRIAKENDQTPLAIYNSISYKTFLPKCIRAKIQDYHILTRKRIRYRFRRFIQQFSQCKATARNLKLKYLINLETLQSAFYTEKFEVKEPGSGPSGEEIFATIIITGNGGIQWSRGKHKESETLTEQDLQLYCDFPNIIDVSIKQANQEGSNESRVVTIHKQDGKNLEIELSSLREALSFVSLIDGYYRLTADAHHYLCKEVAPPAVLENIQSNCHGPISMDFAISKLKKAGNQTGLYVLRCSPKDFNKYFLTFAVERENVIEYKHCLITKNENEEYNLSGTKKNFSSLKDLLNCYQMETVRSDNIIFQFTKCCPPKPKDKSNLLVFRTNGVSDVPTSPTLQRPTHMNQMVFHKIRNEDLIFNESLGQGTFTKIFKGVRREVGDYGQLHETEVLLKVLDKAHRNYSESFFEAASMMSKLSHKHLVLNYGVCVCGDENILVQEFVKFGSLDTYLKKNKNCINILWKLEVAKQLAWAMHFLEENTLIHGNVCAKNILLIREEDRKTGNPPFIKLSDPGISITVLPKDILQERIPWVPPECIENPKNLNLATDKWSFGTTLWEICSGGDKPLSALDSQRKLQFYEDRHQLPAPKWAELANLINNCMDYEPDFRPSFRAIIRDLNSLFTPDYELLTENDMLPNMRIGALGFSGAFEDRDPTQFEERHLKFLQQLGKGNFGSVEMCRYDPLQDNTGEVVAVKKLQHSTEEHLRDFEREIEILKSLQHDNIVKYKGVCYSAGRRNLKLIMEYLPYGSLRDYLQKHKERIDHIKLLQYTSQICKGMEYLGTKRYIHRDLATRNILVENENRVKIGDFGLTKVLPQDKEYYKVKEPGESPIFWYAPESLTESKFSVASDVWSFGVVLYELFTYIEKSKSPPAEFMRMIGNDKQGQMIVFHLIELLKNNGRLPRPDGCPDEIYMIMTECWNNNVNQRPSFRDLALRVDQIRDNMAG
Procedure: as §1, §2, §3, §4, §5

JAK3 = biological target: T3, JAK3 (Homo sapiens, UniProt P52333); test: JAK tyrosine kinase inhibitory activity in the presence of 1 mM ATP (ELISA), JAK3
T3 construct: purchased Carna Biosciences, Inc
T3 sequence (P52333 1-1124): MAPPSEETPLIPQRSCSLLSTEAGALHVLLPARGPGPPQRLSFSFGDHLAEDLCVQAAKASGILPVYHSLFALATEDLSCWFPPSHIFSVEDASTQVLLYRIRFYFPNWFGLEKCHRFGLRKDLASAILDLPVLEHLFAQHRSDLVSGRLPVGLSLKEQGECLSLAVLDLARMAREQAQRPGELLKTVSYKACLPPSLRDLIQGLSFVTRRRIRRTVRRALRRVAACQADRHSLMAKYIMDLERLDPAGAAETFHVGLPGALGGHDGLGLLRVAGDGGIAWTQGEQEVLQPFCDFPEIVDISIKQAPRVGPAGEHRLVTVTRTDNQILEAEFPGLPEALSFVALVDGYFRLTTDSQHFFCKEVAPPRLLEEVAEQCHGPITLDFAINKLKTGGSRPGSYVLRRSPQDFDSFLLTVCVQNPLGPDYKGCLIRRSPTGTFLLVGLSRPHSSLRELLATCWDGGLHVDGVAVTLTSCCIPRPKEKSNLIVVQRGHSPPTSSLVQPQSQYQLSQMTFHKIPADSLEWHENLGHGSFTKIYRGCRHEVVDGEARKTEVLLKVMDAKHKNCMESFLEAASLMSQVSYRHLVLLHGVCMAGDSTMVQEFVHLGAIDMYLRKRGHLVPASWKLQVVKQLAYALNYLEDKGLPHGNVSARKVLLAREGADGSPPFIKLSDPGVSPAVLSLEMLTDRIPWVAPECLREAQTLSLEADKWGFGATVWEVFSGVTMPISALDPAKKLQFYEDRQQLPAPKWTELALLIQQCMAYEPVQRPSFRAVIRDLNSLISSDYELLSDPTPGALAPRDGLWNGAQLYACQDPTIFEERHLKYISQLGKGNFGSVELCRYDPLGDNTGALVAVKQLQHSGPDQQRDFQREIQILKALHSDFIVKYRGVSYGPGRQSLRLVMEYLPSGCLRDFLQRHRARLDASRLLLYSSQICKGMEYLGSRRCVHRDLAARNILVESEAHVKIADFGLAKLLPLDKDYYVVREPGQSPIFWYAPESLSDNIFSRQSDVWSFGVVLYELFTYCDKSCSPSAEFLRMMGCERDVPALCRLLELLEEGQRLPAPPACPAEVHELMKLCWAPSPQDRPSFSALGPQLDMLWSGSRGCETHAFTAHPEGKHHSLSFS
Procedure: as §1, §2, §3, §4, §5

T1 sequence (P23458 whole entry): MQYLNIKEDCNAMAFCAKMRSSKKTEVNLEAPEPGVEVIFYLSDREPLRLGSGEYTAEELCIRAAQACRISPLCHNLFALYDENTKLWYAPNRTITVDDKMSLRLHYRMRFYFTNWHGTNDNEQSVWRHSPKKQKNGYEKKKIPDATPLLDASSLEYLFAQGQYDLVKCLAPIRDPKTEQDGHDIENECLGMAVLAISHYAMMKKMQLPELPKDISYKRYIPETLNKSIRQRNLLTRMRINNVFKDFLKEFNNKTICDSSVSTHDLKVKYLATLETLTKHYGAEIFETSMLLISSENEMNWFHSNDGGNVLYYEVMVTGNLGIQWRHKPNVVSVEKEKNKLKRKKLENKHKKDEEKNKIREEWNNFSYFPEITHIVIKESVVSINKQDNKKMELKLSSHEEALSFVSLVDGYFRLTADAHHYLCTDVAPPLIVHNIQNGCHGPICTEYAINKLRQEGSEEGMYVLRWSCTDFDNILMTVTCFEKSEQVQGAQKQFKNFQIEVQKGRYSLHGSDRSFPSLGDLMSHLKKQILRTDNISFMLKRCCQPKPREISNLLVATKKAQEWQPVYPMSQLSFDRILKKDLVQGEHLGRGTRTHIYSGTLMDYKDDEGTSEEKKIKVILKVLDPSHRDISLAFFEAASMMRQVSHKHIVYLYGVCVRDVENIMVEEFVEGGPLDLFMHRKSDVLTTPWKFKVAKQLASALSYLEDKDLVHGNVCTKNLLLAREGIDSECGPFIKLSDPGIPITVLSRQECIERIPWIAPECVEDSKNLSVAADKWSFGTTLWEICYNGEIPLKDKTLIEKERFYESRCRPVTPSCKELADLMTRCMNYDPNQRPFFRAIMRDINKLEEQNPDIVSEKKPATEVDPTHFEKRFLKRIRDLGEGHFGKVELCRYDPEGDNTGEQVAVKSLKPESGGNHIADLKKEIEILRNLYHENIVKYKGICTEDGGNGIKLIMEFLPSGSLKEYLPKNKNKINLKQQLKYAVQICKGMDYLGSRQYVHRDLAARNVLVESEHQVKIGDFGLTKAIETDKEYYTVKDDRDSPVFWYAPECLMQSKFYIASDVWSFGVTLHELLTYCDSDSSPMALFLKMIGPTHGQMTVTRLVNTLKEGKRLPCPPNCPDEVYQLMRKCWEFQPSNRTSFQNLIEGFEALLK

SMILES | IC50 (JAK1) [nM] | IC50 (JAK2) [nM] | IC50 (JAK3) [nM]
COC(=O)N1CCC(Nc2cc(C(=O)N3CCC(NC(=O)C4CC4)CC3)nc(-c3cnn4ccsc34)n2)CC1 [Example 194, Methyl 4-[6-4-[(cyclopropanecarbonyl)amino]piperidine-1-carbonyl-2-(pyrazolo[5,1-b][1,3]thiazol-7-yl)pyrimidin-4-yl]aminopiperidine-1-carboxylate] | 260 | > 10000 | > 10000
CCC(=O)NC1CCN(C(=O)c2cc(NCC(C)(C)OC)nc(-c3cnn4ccsc34)n2)CC1 [Example 119, N-[1-({6-[(2-Methoxy-2-methylpropyl)amino]-2-(pyrazolo[5,1-b][1,3]thiazol-7-yl)pyrimidin-4-yl}carbonyl)piperidin-4-yl]propanamide] | 670 | 4200 | > 10000
CC(=O)NC1CCN(C(=O)c2nc(-c3cnn4ccsc34)nc(N[C@@H](C)C3CC3)c2C)CC1 [Example 13, N-(1-{[6-{[(1S)-1-Cyclopropylethyl]amino}-5-methyl-2-(pyrazolo[5,1-b][1,3]thiazol-7-yl)pyrimidin-4-yl]carbonyl}piperidin-4-yl)acetamide] | 400 | 2400 | 1600
CN(c1cc(C(=O)N2CCC(NC(=O)C3CC3)CC2)nc(-c2cnn3ccsc23)n1)[C@H]1CCC[C@@H]1OC(F)F [Example 5, N-(1-{[6-{[(1S,2S)-2-(Difluoromethoxy)cyclopentyl](methyl)amino}-2-(pyrazolo[5,1-b][1,3]thiazol-7-yl)pyrimidin-4-yl]carbonyl}piperidin-4-yl)cyclopropanecarboxamide] | 130 | 2500 | 1400
C[C@@H](Nc1cc(C(=O)N2CCC(NC(=O)OC(C)(C)C)CC2)nc(-c2cnn3ccsc23)n1)C(C)(C)C [Example 100, tert-Butyl (1-{[6-{[(2R)-3,3-dimethylbutan-2-yl]amino}-2-(pyrazolo[5,1-b][1,3]thiazol-7-yl)pyrimidin-4-yl]carbonyl}piperidin-4-yl)carbamate] | 140 | 3000 | 3400
COC(=O)NC1CCN(C(=O)c2cc(NC3CCN(C(=O)CC#N)CC3)nc(-c3cnn4ccsc34)n2)CC1 [Example 199, Methyl (1-{[6-{[1-(cyanoacetyl)piperidin-4-yl]amino}-2-(pyrazolo[5,1-b][1,3]thiazol-7-yl)pyrimidin-4-yl]carbonyl}piperidin-4-yl)carbamate] | 2800 | > 10000 | > 10000
O=C(NC1CCN(C(=O)c2cc(NC3CCOCC3)nc(-c3cnn4ccsc34)n2)CC1)C1CC1 [Example 172, N-(1-6-[(oxan-4-yl)amino]-2-(pyrazolo[5,1-b][1,3]thiazol-7-yl)pyrimidine-4-carbonylpiperidin-4-yl)cyclopropanecarboxamide] | 320 | > 10000 | > 10000
CCC(CC)N(C)c1cc(C(=O)N2CCC(O)CC2)nc(-c2cnn3ccsc23)n1 [Example 120, (4-Hydroxypiperidin-1-yl){6-[methyl(pentan-3-yl)amino]-2-(pyrazolo[5,1-b][1,3]thiazol-7-yl)pyrimidin-4-yl}methanone hydrochloride] | 870 | 3000 | 3400
CCC(=O)NC1CCN(C(=O)c2cc(N[C@@H]3CCN(C(=O)CC#N)C3)nc(-c3cnn4ccsc34)n2)CC1 [Example 202, N-1-[6-[(3R)-1-(cyanoacetyl)pyrrolidin-3-yl]amino-2-(pyrazolo[5,1-b][1,3]thiazol-7-yl)pyrimidine-4-carbonyl]piperidin-4-ylpropanamide] | 300 | > 10000 | > 10000
CS(=O)(=O)N1CCC(Nc2cc(C(=O)N3CCC(NC(=O)C4CC4)CC3)nc(-c3cnn4ccsc34)n2)CC1 [Example 189, N-1-[6-[1-(methanesulfonyl)piperidin-4-yl]amino-2-(pyrazolo[5,1-b][1,3]thiazol-7-yl)pyrimidine-4-carbonyl]piperidin-4-ylcyclopropanecarboxamide] | 1100 | > 10000 | > 10000

Stronger by IC50 (JAK1), values ahead:

IC50 (JAK1) [nM] | IC50 (JAK2) [nM] | IC50 (JAK3) [nM] | SMILES
81 | > 10000 | 580 | COc1ccccc1C(=O)NC1CCN(C(=O)c2cc(N[C@@H](C)C3CC3)nc(-c3cnn4ccsc34)n2)CC1 [Example 186, N-1-[6-[(1S)-1-cyclopropylethyl]amino-2-(pyrazolo[5,1-b][1,3]thiazol-7-yl)pyrimidine-4-carbonyl]piperidin-4-yl-2-methoxybenzamide]
69 | > 10000 | 2700 | Cc1c(N[C@@H](C)C(C)(C)C)nc(-c2cnn3ccsc23)nc1C(=O)N1CCC(NC(=O)C2CC2)CC1 [Example 7, N-(1-{[6-{[(2S)-3,3-Dimethylbutan-2-yl]amino}-5-methyl-2-(pyrazolo[5,1-b][1,3]thiazol-7-yl)pyrimidin-4-yl]carbonyl}piperidin-4-yl)cyclopropanecarboxamide]
66 | 1300 | > 10000 | CC(Oc1cc(C(=O)N2CCC(NC(=O)C3CC3)CC2)nc(-c2cnn3ccsc23)n1)C(C)(C)C (stereo not drawn) [Example 44, N-[1-({6-[(3,3-Dimethylbutan 2 yl)oxy]-2-(pyrazolo[5,1-b][1,3]thiazol-7-yl)pyrimidin-4-yl}carbonyl)piperidin-4-yl]cyclopropanecarboxamide]
37 | 1400 | 1400 | C[C@H](Nc1cc(C(=O)N2CCC(NC(=O)OCC(F)F)CC2)nc(-c2cnn3ccsc23)n1)C1CC1 [Example 98, 2,2-Difluoroethyl (l-{[6-{[(1S)-1-cyclopropylethyl]amino}-2-(pyrazolo[5,1-b][1,3]thiazol-7-yl)pyrimidin-4-yl]carbonyl}piperidin-4-yl)carbamate]
25 | 680 | 1900 | C[C@H](Nc1cc(C(=O)N2CCC(NS(=O)(=O)C3CC3)CC2)nc(-c2cnn3ccsc23)n1)C1CC1 [Example 67, N-(1-{[6-{[(1S)-1-Cyclopropylethyl]amino}-2-(pyrazolo[5,1-b][1,3]thiazol-7-yl)pyrimidin-4-yl]carbonyl}piperidin-4-yl)cyclopropanesulfonamide]
19 | 790 | 2600 | C[C@H](Nc1cc(C(=O)N2CCC(NC(=O)OCC(F)F)CC2)nc(-c2cnn3ccsc23)n1)C(C)(C)C [Example 99, 2,2-Difluoroethyl (1-{[6 {[(2S) 3,3-dimethylbutan-2-yl]amino}-2-(pyrazolo[5,1-b][1,3]thiazol-7-yl)pyrimidin-4-yl]carbonyl}piperidin-4-yl)carbamate]
